Measured values: patent US9801973B1, “Peptide having zirconia-binding capacity” (SEOUL NATIONAL UNIVERSITY R&DB FOUNDATION, priority 2015, dated 2017)

Columns and labels:
[1] = binding assay using an avidin-biotin complex (binding affinity of zirconia-binding peptide); conditions: biotin-labeled peptide, 100 nM to 1 μM, room temperature 15 hours
Excerpt: (§1) In order to examine the binding affinities of the peptides synthesized in Example 1 and Comparative Examples 1 and 2, the peptides were labeled with biotin. Each of the synthesized peptide domains was biotinylated using EZ-Link Sulfo-NHS-Biotin (Pierce Biotechnology, USA) according to the manufacturer's instruction, and unbound byproducts were removed by ultrafiltration that is a membrane separation method based on a pressure difference. The molecular weights of the synthesized products were measured by mass spectrometry. The synthesized products were analyzed and purified by reverse phase liquid chromatography. For analysis, a C18 column having a diameter of 4.6 mm was used, and 0.1% TFA/H2O and 0.092% TFA/acetonitrile were flushed onto the column at a rate of 1 ml/min with a gradient of 0-60% for 30 minutes. The wavelength of the UV detector used was 220 nm. For purification, a column having a diameter of 2.2 cm was used, and a flow rate of 20 ml/min and the solvent and detection wavelength as described above were used. Only the biotin-labeled peptide fraction was collected, and concentrated using a rotary evaporator to remove the solvent, followed by freeze-drying.
To measure the binding affinity of the zirconia-binding peptide, a binding assay using an avidin-biotin complex was performed. Specifically, one zirconia disc was placed in each well of a 12-well polystyrene plate, and then blocked with a blocking buffer (0.1 M NaHCO3 (pH 8.6), 5 mg/ml BSA, 0.02% NaN3 (optional), filter sterilize) for at least one hour. Next, the blocking buffer was discarded, and each zirconia disc was strongly washed six times or more with a washing buffer (TBS+0.1% [v/v] Tween-20), after which 200 μl of each of the zirconia-binding peptide Zr-BP (SEQ ID NO: 1) of Example 1 and the peptides Zr-BPC (SEQ ID NO: 2), PL1 (SEQ ID NO: 3) and PL2 (SEQ ID NO: 4) of Comparative Examples 1 and 2, which were biotin-labeled, synthesized, separated and purified in Example 3-1, was dispensed to the surface of each zirconia disc at a concentration ranging from 100 nM to 1 μM. Each zirconia disc was incubated at room temperature for 15 hours, and then washed strongly with a washing buffer, and 200 μl of a 1:500 dilution of ExtrAvidin-peroxidase (Cat. #E2886, Sigma-Aldrich, USA) in a blocking buffer was dispensed to the surface of each zirconia disc. Each zirconia disc was incubated at room temperature for 1 hour, and then washed strongly with a washing buffer, after which 200 μl of a substrate solution (2,2′-AZINO-BIS, Cat. #A3219, Sigma-Aldrich, USA) was dispensed to the surface of each zirconia disc and allowed to react at room temperature for 20 minutes so as to develop color. Each zirconia disc was treated with 200 μl of 1% SDS solution to stop the reaction, and the absorbance at 405 nm was measured.

[2] = binding assay using an avidin-biotin complex (maximum binding amount per zirconia disc)
Excerpt: as §1
To examine the maximum binding amount of the zirconia-binding peptide Zr-BP (SEQ ID NO: 1) per unit area of the zirconia disc surface, a binding assay using a avidin-biotin complex was performed. Specifically, one zirconia disc was placed in each well of a 12-well polystyrene plate, and then blocked with a blocking buffer (0.1 M NaHCO3 (pH 8.6), 5 mg/ml BSA, 0.02% NaN3 (optional), filter sterilize) for at least one hour. […] Each zirconia disc was treated with 200 μl of 1% SDS solution to stop the reaction, and the absorbance at 405 nm was measured.

Sequence	absorbance value at 405 nm (binding to the zirconia disc surface) ([1]; FIG. 1)	absorbance value at 405 nm (binding to the zirconia disc surface) ([1]; FIG. 2)	maximum amount of zirconia-binding peptide bound to the surface of one zirconia disc ([2]; back-calculation from molecular weight and dispensing amount, disc diameter 15.5 mm) [µg]	concentration showing the maximum absorbance value ([2]; biotin-labeled peptide, 100 nM to 40 mM, 200 μl per disc, room temperature 15 hours, FIG. 3) [mM]	zirconia-binding peptide fixed per mm^2 of the zirconia disc surface ([2]; per mm^2, disc diameter 15.5 mm)
VSAAGTKASPAV (Zr-BPC)	binding affinity thereof is reduced				
LRLDVDRAISLL (PL2)		do not bind to the zirconia disc surface			
VSPFGTKWSPFV (Zr-BP)	higher than that of the peptide Zr-BPC of Comparative Example 1	higher than those of the peptides (PL1 and PL2) of Comparative Example 2	622.8	2	about 3.3 μg
IGNSFSFPAVYR (PL1)		do not bind to the zirconia disc surface			
